Source: article PMC6691826, “1D NMR WaterLOGSY as an efficient method for fragment-based lead discovery” (Journal of Enzyme Inhibition and Medicinal Chemistry, 2019)
Blank lines part the entries; values can stand above or below the molecule they belong to.

What was measured:
[1] = biological target: T1, human serum albumin (HSA) (Homo sapiens, UniProt P02768); test: WaterLOGSY NMR epitope mapping, HSA; type: binding; conditions: all protons, bound to HSA, 1.5 s mixing time, normalised
T1 construct: purchased Sigma A3782
T1 sequence (P02768 25-609): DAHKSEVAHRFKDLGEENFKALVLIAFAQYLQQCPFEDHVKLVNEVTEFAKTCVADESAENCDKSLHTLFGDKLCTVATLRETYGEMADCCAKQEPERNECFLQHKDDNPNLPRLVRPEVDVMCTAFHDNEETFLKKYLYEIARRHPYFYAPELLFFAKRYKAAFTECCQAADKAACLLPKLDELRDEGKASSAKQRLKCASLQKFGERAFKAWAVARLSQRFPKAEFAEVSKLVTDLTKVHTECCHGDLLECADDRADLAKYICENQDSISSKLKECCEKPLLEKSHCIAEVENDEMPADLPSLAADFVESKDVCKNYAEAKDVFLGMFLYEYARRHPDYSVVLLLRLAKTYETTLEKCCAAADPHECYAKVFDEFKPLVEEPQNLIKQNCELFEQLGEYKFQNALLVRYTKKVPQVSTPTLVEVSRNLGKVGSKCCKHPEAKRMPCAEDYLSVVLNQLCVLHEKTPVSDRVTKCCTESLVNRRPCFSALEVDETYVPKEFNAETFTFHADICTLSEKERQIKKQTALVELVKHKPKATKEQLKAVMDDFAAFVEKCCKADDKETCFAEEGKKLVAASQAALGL
Protocol: (§1) NMR samples for STD experiments consisted of 400 µM fragment in 0.5% DMSO-d6 and 10% D2O (v/v) together with a protein concentration of 20 µM for peroxiredoxin and HSP90, 10 µM for Bcl-xL, 15 µM for Mcl-1, 2 µM for glycogen phosphorylase, and 5 µM for HSA.
(§2) Standard 1 D, STD, and WaterLOGSY NMR spectra were acquired at 20 °C with an Agilent Inova 600 MHz NMR spectrometer, equipped with a room temperature 5 mm triple-resonance inverse probe with z-axis field gradient and a Bruker 600 MHz NMR spectrometer, equipped with a Z-gradient cryoprobe.
(§3) WaterLOGSY mixing time was 1.5 s, and additional experiments were performed with 0.75 s and 0.25 s mixing time. Both STD and WaterLOGSY spectra were recorded for each sample. WaterLOGSY spectra in the absence of protein receptor were recorded with 400 µM compound. All the NMR experiments were performed at 293 K with excitation sculpting to suppress peaks from water. […] The STD factors were calculated according to the following equation: R=(ISTD/I1D)×100) were ISTD and I1D are the intensity of proton resonances of the STD and the 1 D proton spectra, respectively. […]
(§4) This is due to the WaterLOGSY mechanism that involves magnetisation transfer from bulk water. Therefore, we propose the following protocol to quantitatively evaluate the WaterLOGSY signals of the protons of a compound bound to its receptor. […]

[2] = biological target: T1, human serum albumin (HSA); test: Dissociation constant of fragment bound to HSA; type: binding
[3] = biological target: T2, N-terminal domain of HSP90 (Homo sapiens, UniProt P07900); test: WaterLOGSY NMR epitope mapping, HSP90; type: binding; conditions: proton H1, bound to HSP90, 1.5 s mixing time, normalised
T2 construct: the N-terminal domain (9–236) of HSP-90 were produced and purified; made in house; host or cells: Escherichia coli
Protocol: as §1, §2, §3, §4

[4] = biological target: N-terminal domain (9–236) of HSP90; parameters: method as in PMID 20718493; conditions: bound to HSP90; cited from earlier work
Bcl-xL = biological target: Bcl-xL; parameters: method as in PMID 16420051; conditions: bound to Bcl-xL; cited from earlier work
[5] = biological target: T3, glycogen phosphorylase (GP) (Oryctolagus cuniculus, UniProt P00489); test: Dissociation constant of fragment bound to GP; type: binding, rabbit; conditions: unpublished data
T3 sequence (P00489 1-843): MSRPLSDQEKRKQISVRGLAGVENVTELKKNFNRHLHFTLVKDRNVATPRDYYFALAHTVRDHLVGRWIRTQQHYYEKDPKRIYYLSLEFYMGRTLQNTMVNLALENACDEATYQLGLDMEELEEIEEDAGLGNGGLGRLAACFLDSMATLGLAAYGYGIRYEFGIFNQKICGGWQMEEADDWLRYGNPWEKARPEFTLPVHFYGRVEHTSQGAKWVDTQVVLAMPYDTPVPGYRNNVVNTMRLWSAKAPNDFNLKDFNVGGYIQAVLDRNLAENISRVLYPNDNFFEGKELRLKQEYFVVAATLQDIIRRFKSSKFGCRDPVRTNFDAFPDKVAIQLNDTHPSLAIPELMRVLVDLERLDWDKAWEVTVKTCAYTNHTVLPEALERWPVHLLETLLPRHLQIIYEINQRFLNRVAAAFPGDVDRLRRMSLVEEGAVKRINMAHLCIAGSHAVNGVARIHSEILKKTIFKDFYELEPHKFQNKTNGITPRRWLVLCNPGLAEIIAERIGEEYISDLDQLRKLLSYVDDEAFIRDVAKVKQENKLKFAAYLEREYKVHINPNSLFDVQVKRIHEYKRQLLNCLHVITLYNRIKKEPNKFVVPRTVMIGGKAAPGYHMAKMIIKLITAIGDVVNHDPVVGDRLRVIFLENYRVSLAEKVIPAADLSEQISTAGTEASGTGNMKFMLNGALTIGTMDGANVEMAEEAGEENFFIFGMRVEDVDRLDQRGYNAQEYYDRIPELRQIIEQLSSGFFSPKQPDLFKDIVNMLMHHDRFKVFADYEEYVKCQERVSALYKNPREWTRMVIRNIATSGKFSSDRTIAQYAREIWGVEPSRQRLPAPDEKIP

WLOGSY factor [1]: 100% | Kd [2]: > 1000 µM
SMILES: Cc1ccc(O)c(O)c1 [Compound 1, 4-methylcatechol]

WLOGSY factor [3]: 10%
SMILES: CCN(CC)C(=O)c1ccc(O)c(OC)c1 [Compound 4, N,N-diethylvanillamide]
Kd [4]: 790 µM

SMILES: O=C(O)c1ccc(-c2ccc(F)cc2)cc1 [Compound 5, 4′-fluoro-[1,1′-biphenyl]-4-carboxylic acid]
Kd (Bcl-xL): 300 µM

Kd [5]: > 1000 µM
SMILES: O=C(O)c1ccc(Oc2ccccc2)cc1 [Compound 6, 4-phenoxybenzoic acid]
